In patent publication US20090130229A1, “Antitumor uses of compound” (Cell Therapeutics, Inc., priority 2002, published 2009):

Legend:
[1] = system: TT medullary thyroid carcinoma xenografts; assay: Antitumor activity in nude mice harboring TT xenografts; format: in vivo; conditions: for TWI (tumor weight inhibition): 10 consecutive days
Procedure: FIG. 3. Antitumor activity of Cpd 1 in nude mice harboring TT medullary thyroid carcinoma xenografts. Drug treatment started 25 days after s.c. inoculum of the tumor cells. Cpd 1 was delivered per os at 50 or 100 mg/Kg, twice in a day (2qd), for 10 consecutive days (indicated by arrows). Control mice received the vehicle. […] TWI were 60% (P<0.005) and 80% (P<0.0005) for the 50 mg/Kg and 100 mg/Kg doses, respectively.
All experiments were carried out using female athymic nude CD-1 mice, 8-11-weeks old (Charles River, Calco, Italy). Mice were maintained in laminar flow rooms with constant temperature and humidity. Experimental protocols were approved by the Ethic Committee for Animal Experimentation of the Istituto Nazionale per lo Studio e la Cura dei Tumori (Milan, Italy), according to the United Kingdom Coordinating Committee on Cancer Research Guidelines (Workman P. et al., British Journal of Cancer, 77, 1, 1998).
The MTC cells TT (1.6×10^7 cells) were s.c. inoculated in mice as a cell suspension from in vitro cell culture. Each control or drug-treated group included 8-10 tumors. Tumor cells were injected on day 0, and tumor growth was followed by biweekly measurements of tumor diameters with a Vernier caliper. Tumor weight (TW) was calculated according to the formula: TW (mg)=tumor volume (mm^3)=d^2xD/2, where d and D are the shortest and the longest diameter, respectively. Drug treatment started when tumors were just measurable (mean TW about 50 mg), 25 days after the inoculum of tumor cells. Cpd1 was dissolved in 5% ethanol, 5% Cremophor EL, 90% saline (0.9% NaCl) and delivered per os twice in a day (2qd) by a daily schedule for 10 days. Control mice received the solvent solution.
Drug efficacy was assessed as percentage TW inhibition (TWI % in drug-treated versus control mice expressed as: TWI %=100−(mean TW treated/mean TW control×100). For statistical analysis, TW in control and treated mice were compared on the day of TWI % evaluation, by Student's t test (two-tailed). P values less than 0.05 were considered statistically significant.

PDGF-R = PDGF-R autophosphorylation and expression in whole cells (2N5A, Swiss 3T3); format: cell-based, mouse
Procedure: FIG. 5. Inhibition of PDGF-R autophosphorylation and expression in whole cells by Cpd 1. A): 2N5A cells (NIH3T3 transformed by the COL1A1/PDGFB rearrangement generating autocrine stimulation of PDGF-R) were treated with Cpd 1 at the indicated concentrations, for 72 h. Cell extracts were immunoprecipitated with anti-PDGF-R and subjected to Western blotting with anti-pTyr or anti-PDGF-R antibodies. B): Swiss 3T3 cells were serum starved for 24 h and then treated with Cpd1 at the indicated concentrations, for 18 h. After stimulation with 1 nM PDGF for 5 min, whole cell lysates were prepared and subjected to Western blotting with anti-pTyr or anti-PDGF-R. Protein loading by anti-actin blot is shown.
The following human medullary thyroid carcinoma (MTC) cell lines were used in this study. The TT cell line derived from a MEN2A-associated MTC characterized by expression of the RET oncogene carrying the mutation C634W. The MZ-CRC-1 cell line derived from MEN2B-associated MTC characterized by expression of the RET oncogene carrying the mutation M918T. TT cells were cultivated in Ham's F12 medium (BioWhittaker, Verviers, Belgium) supplemented with 15% fetal calf serum (FCS) (Life Technologies, Inc., Gaithersburg, Md.) whereas MZ-CRC-1 cells were grown in Dulbecco's modified Eagle's medium (DMEM) (BioWhittaker) supplemented with 10% FCS. The human papillary thyroid carcinoma cell line TPC-1 which was used as a model of Met overexpression, was routinely cultivated in DMEM with 10% FCS. N592 cells, derived from a human SCLC, were characterized by Kit activation through autocrine stimulation by the SCF ligand. N592 cells were cultured in RPMI 1640 supplemented with 10% FCS. The mouse SWISS3T3 and NIH3T3 fibroblasts were cultured in DMEM with 10% calf serum (Colorado Serum Company, Denver, Colo.). In addition, NIH3T3 cells transfected with different oncogenes were used. NIH3T3^MEN2A transfectants express the short isoform of the RET-MEN2A (C634R) oncogene; NIH3T3^KITΔ559 cells express KIT carrying the activating mutation Δ559 found in GISTs; NIH3T3^FGFR3(Y373C) express the FGF-R3 gene carrying the activating mutation Y373C found in a human multiple myeloma cell line. 2N5A cells are NIH3T3 cells-transformed by the COL1A1/PDGFB rearrangement generating autocrine stimulation of PDGF-R. All NIH3T3 transfectants were maintained in DMEM plus 5% calf serum in a 10% CO2 atmosphere.
For whole-cell extract preparation, cells were lysed in sodium dodecyl sulfate (SDS) sample buffer (62.5 mM Tris-HCl (pH 6.8), 2% SDS) with 1 mM PMSF, 10 μg/ml pepstatin, 12.5 μg/ml leupeptin, 100 KIU aprotinin, 1 mM sodium orthovanadate, 1 mM sodium molybdate. Protein concentration was determined in appropriately diluted aliquots by the bicinchionic acid (BCA) method (Pierce, Rockford, Ill.), then samples were adjusted to a final concentration of 10% glycerol, 5% β-mercaptoethanol, 0.001% bromophenol blue.
For immunoprecipitation experiments, cells were treated with Cpd1 or solvent for the indicated times. Cell monolayers were rinsed twice with cold phosphate-buffered saline plus 0.1 mM sodium orthovanadate and then left for 20 min on ice in lysis buffer (50 mM HEPES pH7.6, 150 mM NaCl, 10% glycerol, 1% Triton X-100, 1.5 mM MgCl2, 1 mM EGTA, 100 mM NaF, 10 mM sodium pyrophosphate, 10 μg/ml antipain, 20 μg/ml chymostatin, 10 μg/ml E64, 1 mg/ml pefabloc SC). […] Protein concentration was determined by the BCA reagent (Pierce). […]

COc1cc2c(cc1OC)/C(=C\c1ccc(O)cc1)C(=O)N2 [Cpd 1, (E)-1,3-dihydro-5,6-dimethoxy-3-[(4-hydroxyphenyl)methylene]-2H-indol-2-one] was tested, and the “TWI (tumor weight inhibition)” value ([1]; 50 mg/Kg per os, 2qd, P<0.005) was 60%, the “TWI (tumor weight inhibition)” value ([1]; 100 mg/Kg per os, 2qd, P<0.0005) was 80% and the Tumor growth ([1]; 50 or 100 mg/Kg per os, 2qd, 10 days) was “significant dose-dependent inhibition”. The “Tumor weight inhibition (TWI) reached” value ([1]; oral, daily dose of 50-100 mg/Kg (twice a day)) was 80%, the Toxicity ([1]; oral, daily dose of 50-100 mg/Kg (twice a day), nude mice) was “without inducing toxicity” and the PDGF-R tyrosine phosphorylation (PDGF-R; 2N5A cells (autocrine stimulation), 72 h) was “dose-dependent drug-induced inhibition”. For the same compound, the PDGF-R expression (PDGF-R; 2N5A cells, 72 h) was “dose-dependent drug-induced inhibition”, the PDGF-R tyrosine phosphorylation (PDGF-R; Swiss 3T3 cells serum starved, 18 h, 1 nM PDGF 5 min) was “dose-dependent drug-induced inhibition” and the PDGF-R expression (PDGF-R; Swiss3T3 cells, 18 h) was “dose-dependent drug-induced inhibition”. For the same compound, the “Concentration causing full inhibition of PDGF-R phosphorylation” value (PDGF-R; whole cells (FIG. 5)) was “higher than 15 μM”.
